Tests used:
Assay in all cases: AUC of viability dose-response curve (% viability x log10 dose units); higher = less sensitive
Conditions in all cases: 48 h
[1] = system: SEM cells
Outline: (§1)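 Leukemia cells adapted to each medium were seeded in 1536-well plates (500 or 1000 cells/well). They were dosed with library compounds in DMSO at 11 threefold doses, 47 μM to 0.79 nM, for 48 h at 37°C. CellTiter-Glo One luminescence was normalised per plate to DMSO and cell-free wells. Area under the curve was integrated by trapezoidal rule over log10 doses on a four-parameter log-logistic fit; curves exceeding full viability were scaled and curves failing quality control removed.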

[2] = system: P12-Ichikawa
Outline: as §1

[3] = system: NOMO1
Outline: as §1

[4] = RPMI 5 mM glucose + 10% dialyzed FBS

SMILES	AUC of viability dose-response curve ([1]; HPLM + 10% dialyzed FBS)	AUC of viability dose-response curve ([1]; RPMI 5 mM glucose + 10% FBS)	AUC of viability dose-response curve [1, 4]	AUC of viability dose-response curve ([2]; HPLM + 10% dialyzed FBS)	AUC of viability dose-response curve ([2]; RPMI 5 mM glucose + 10% FBS)	AUC of viability dose-response curve [2, 4]	AUC of viability dose-response curve ([3]; HPLM + 10% dialyzed FBS)	AUC of viability dose-response curve ([3]; RPMI 5 mM glucose + 10% FBS)	AUC of viability dose-response curve [3, 4]
CCC[C@@H](C=O)NC(=O)[C@H](CC(C)C)NC(=O)[C@H](CC(C)C)NC(=O)OCc1ccccc1	356	296	337	366	359	367	348	334	359
O=C(O)CCNc1cc(N2CCc3ccccc3CC2)nc(-c2ccccn2)n1	463	434	463	463	454	459	448	456	452
COc1cccc2c(NCc3ccccc3)nc(-n3c(N)nc4ccccc43)nc12	369	367	379	428	435	439	453	457	455
CCc1ccc(C(=O)Nc2cc(CN3CCN(C)CC3)cc(C(F)(F)F)c2)cc1C#Cc1cnc2ccnn2c1	449	453	451	459	454	415	459	460	477
O=P1(N(CCCl)CCCl)NCCCO1 (stereo unspecified)	413	405	406	409	424	448	416	436	430
C[C@@H](NCc1cc2ccccc2[nH]1)c1cccc2ccccc12	409	406	413	441	434	414	443	428	449
NC(=O)c1cnc(-c2ccc(C3(N)CCC3)cc2)c(-c2ccccc2)c1	400	396	394	428	448	432	428	468	460
NC1CCC(Nc2nc(Nc3ccc(C(=O)N4CCCCC4)cc3)c3ncn(-c4cccc(F)c4)c3n2)CC1 (stereo unspecified)	436	435	426	429	459	439	437	457	470
Nc1nc(Nc2ccc([S+](N)(=O)[O-])cc2)nn1C(=O)c1c(F)cccc1F	397	407	399	455	435	439	437	410	402

— the supplement of paper PMC11451515
